This note sets out measurements from US5211945A, “Compositions and methods for modulating the effect of TNF and IL-1” (priority 1986, dated 1993).

Data set [1] deals with SV-80 cells. Briefly: Sensitization of SV-80 cells to the cytolytic effect of TNF, neutral red uptake. Conditions: for Cell viability upon treatment with TNF (500 U/ml), pretreatment with IL-1 (2 U/ml), OD540 / Cell viability upon treatment with TNF (500 U/ml), pretreatment with IL-1 (2 U/ml), %: 4 h pretreatment with IL-1 2 U/ml; for Cell viability upon treatment with TNF (500 U/ml), pretreatment with IL-1 (2 U/ml), OD540 / Cell viability upon treatment with TNF (500 U/ml), pretreatment with IL-1 (2 U/ml), % / Cell viability upon treatment with TNF (500 U/ml), pretreatment with TNF (20 U/ml), OD540 / Cell viability upon treatment with TNF (500 U/ml), pretreatment with TNF (20 U/ml), %: then TNF 500 U/ml for 12 h with sensitizing agent; for Cell viability upon treatment with TNF (500 U/ml), pretreatment with IL-1 (2 U/ml), % / Cell viability upon treatment with TNF (500 U/ml), pretreatment with TNF (20 U/ml), %: % of sensitizing agent alone; for Cell viability upon treatment with TNF (500 U/ml), pretreatment with TNF (20 U/ml), OD540 / Cell viability upon treatment with TNF (500 U/ml), pretreatment with TNF (20 U/ml), %: 4 h pretreatment with TNF 20 U/ml; for Cell viability in absence of TNF, OD540: 12 h with sensitizing agent alone (cycloheximide 50 μg/ml, emetine 10 μg/ml, actinomycin D 5 μg/ml); for Cell viability upon treatment with TNF (500 U/ml), no pretreatment, OD540: TNF 500 U/ml for 12 h together with sensitizing agent; for Cell viability upon treatment with TNF (500 U/ml), no pretreatment, %: TNF 500 U/ml for 12 h with sensitizing agent, % of viability with sensitizing agent alone. The data set is classed as cell-based, human. On the procedure: Cytolytic and protective (desensitization) activities of the cytokines were determined in all the figures using SV-80 cells which, for measurement of cytolytic activity, were incubated with serial dilutions of the tested cytokine for 12 hours together with 50 μg/ml CHI; for measuring protective activity, they were incubated for 4 hours with the tested cytokine and then for 12 hours with TNF, at the indicated concentrations, together with 50 μg/ml CHI. The extent of cell killing was quantitated by the neutral-red uptake assay. A unit of cytolytic activity is defined as the concentration of the tested cytokine at which the amount of cells remaining viable was 50% of those that remained viable on incubation with CHI alone. A unit of protective activity is defined as that cytokine concentration protecting 50% of the cells from killing by TNF.
IL-1 or TNF provide protection not only against the cytotoxicity mediated in the presence of CHI, but also against killing of cells in which synthesis of proteins has been suppressed by other agents.
SV-80 cells following 4 h pretreatment with IL1 or TNF or without such
pretreatment were tested for their vulnerability to the cytolytic effect
of TNF applied for 12 h together with the indicated sensitizing agents.
Viability of the cells is presented as neutral red uptake (OD540)
and, in cultures with TNF, percentagewise as compared to the viability in
cultures incubated with the sensitizing agent alone.

Data set [2] deals with Balb/c mice. In words: Lethality of TNF and IL-1 in mice sensitized with Act-D or GalN. The data set is classed as in vivo, mouse. Conditions: i.p., sensitizer injected 10 minutes before TNF or IL-1. The procedure: Nine to thirteen weeks old Balb/c mice were used in all experiments. TNF, IL-1, LPS, actinomycin-D (Act-D) and D-galactosamine (GalN) were solubilized in PBS and injected i.p.; each in aliquots of 0.5 ml. For lethality determination TNF, IL-1 or LPS were administered alone or 10 minutes following injection of Act-D or GalN; for desensitization experiments mice were injected with TNF or IL-1 12 h prior to a challenge consisting of the same regimen as the lethality testing. Following treatments the mice were continuously observed for a period of 72 h in order to determine the time of their death. In all cases, mice that survived 72 h appeared completely normal at that time. […] All experiments were performed in duplicate with qualitatively the same results. Two mice were examined for each experimental point, in each of the experiments. Their actual survival time as well as the average of the survival time of the two mice used for each of the points are presented.
In an attempt to elucidate the nature of the sensitizing effect of Act-D and of GalN, it was tested whether injection of TNF or IL-1 in the absence of these agents affects the response of mice to a subsequent injection of TNF or IL-1 together with Act-D or GalN. […]

For data set [3], the system named is receptors for TNF on SV-80 cells. Briefly: Binding of radiolabelled TNF to SV-80 cells, Scatchard plot analysis. Conditions: Scatchard analysis of 125I-TNF binding. The format is cell-based, human. On the procedure: (PMA-4-beta-phorbol-12-myristate-13-acetate).
Binding of ^125 I-rTNF (at 3.6 ng/ml), ^125 I-rIL-1 (at 49 ng/ml) and ^125 I-rIFN-gamma (at 13 ng/ml) to the indicated cells was determined at […] as described below. Competition of IL-1 and TNF with each other for binding to their receptors was examined by applying the nonlabelled cytokines, at the indicated concentrations, simultaneously with the labelled proteins to the binding asay. The effect of pretreatment with IL-1 or TNF was examined by applying the proteins on the cells at 37° C. for 4 h prior to application of the labelled cytokines. Human TNF and IFN-gamma were radiolabelled as previously described (30, 44); the first with the chloramine T reagent to specific radioactivity of 42 Ci/g, and the second with the Bolton and Hunter reagent to specific radioactivity of 18 Ci/g. IL-1 was radioiodinated with the chloramine T reagent (31) to specific radioactivity of 40 Ci/g. Recovery of bioactivity following the iodination, as estimated by measuring the protective effect of the protein against the cytotoxicity of TNF (25) was over 95%. […] Specific binding was calculated by subtracting the values of nonspecific binding from the binding observed with the labelled cytokines alone. […]

Numbered stars: 1 amine (or outer) side, 2 acyl side, 3 side chain; on linkers, the order of the positions; unused ones are H or OH. Bridge positions count the residues as written; N and C are the ends. Square brackets hold non-standard residues; d marks the D form. Peptide text beside a SMILES is read from it. I, II: the chains in the order shown. Actinocin(9to1) = Cc1c2oc3c(C)ccc(C(=O)[*:1])c3nc-2c(C(=O)[*:2])c(N)c1=O; NMeV = CN[C@H](C(=O)O)C(C)C; Sar = CNCC(=O)O

As to `CC[C@H]1CN2CCc3cc(OC)c(OC)cc3[C@@H]2C[C@@H]1C[C@H]1NCCc2cc(OC)c(OC)cc21` [emetine], in data set [1], the “Cell viability upon treatment with TNF (500 U/ml), pretreatment with IL-1 (2 U/ml), OD540” value (“Cell viability upon treatment … (2 U/ml), OD540” below) turned out to be 0.220 OD540; the “Cell viability upon treatment with TNF (500 U/ml), pretreatment with IL-1 (2 U/ml), %” value (shortened to “Cell viability upon treatment … (2 U/ml), %”) came out at 84%; the “Cell viability upon treatment with TNF (500 U/ml), pretreatment with TNF (20 U/ml), OD540” value (“Cell viability upon treatment … (20 U/ml), OD540” for short) is 0.234 OD540; the “Cell viability upon treatment with TNF (500 U/ml), pretreatment with TNF (20 U/ml), %” value (shortened to “Cell viability upon treatment … (20 U/ml), %”) is 89%. In addition, in data set [1], the “Cell viability in absence of TNF, OD540” value came out at 0.262 OD540; the “Cell viability upon treatment with TNF (500 U/ml), no pretreatment, OD540” value is recorded as 0.029 OD540; the “Cell viability upon treatment with TNF (500 U/ml), no pretreatment, %” value stood at 11%.

`Cc1c2oc3c(C)ccc(C(=O)N[C@@H]4C(=O)N[C@H](C(C)C)C(=O)N5CCC[C@H]5C(=O)N(C)CC(=O)N(C)[C@@H](C(C)C)C(=O)O[C@@H]4C)c3nc-2c(C(=O)N[C@@H]2C(=O)N[C@H](C(C)C)C(=O)N3CCC[C@H]3C(=O)N(C)CC(=O)N(C)[C@@H](C(C)C)C(=O)O[C@@H]2C)c(N)c1=O` [actinomycin D] (I: T[dV]P[Sar][NMeV] / II: T[dV]P[Sar][NMeV]; ester I:1-I:C, II:1-II:C; linker I:N-II:N via Actinocin(9to1)): in data set [2], the “Sensitization of mice to the lethal effect of TNF and IL-1” value was “sensitize mice to the lethal effect of TNF and IL-1”. Also, in data set [1], the “Cell viability upon treatment … (2 U/ml), OD540” value was 0.215 OD540; the “Cell viability upon treatment … (2 U/ml), %” value is 88%; the “Cell viability upon treatment … (20 U/ml), OD540” value worked out at 0.236 OD540; the “Cell viability upon treatment … (20 U/ml), %” value is 97%. In data set [1], the “Cell viability in absence of TNF, OD540” value is given as 0.243 OD540; the “Cell viability upon treatment with TNF (500 U/ml), no pretreatment, OD540” value amounted to 0.052 OD540; the “Cell viability upon treatment with TNF (500 U/ml), no pretreatment, %” value is 21%.

As for `N[C@H]1C(O)O[C@H](CO)[C@H](O)[C@@H]1O` (stereo partly drawn) [GalN, D-galactosamine], the “Sensitization of mice to the lethal effect of TNF and IL-1” value in data set [2] is “sensitize mice to the lethal effect of TNF and IL-1”.

On to `C[C@@H]1C[C@@H]([C@H](O)CC2CC(=O)NC(=O)C2)C(=O)[C@@H](C)C1` [cycloheximide], for which, in data set [1], the “Cell viability upon treatment … (2 U/ml), OD540” value is recorded as 0.163 OD540; the “Cell viability upon treatment … (2 U/ml), %” value is reported as 72%; the “Cell viability upon treatment … (20 U/ml), OD540” value is on record as 0.195 OD540; the “Cell viability upon treatment … (20 U/ml), %” value is 86%. Besides, in data set [1], the “Cell viability in absence of TNF, OD540” value is given as 0.226 OD540; the “Cell viability upon treatment with TNF (500 U/ml), no pretreatment, OD540” value came to 0.020 OD540; the “Cell viability upon treatment with TNF (500 U/ml), no pretreatment, %” value was found to be 9%.

For `CCCCCCCCCCCCCC(=O)OC1C(C)C2(O)C(C=C(CO)CC3(O)C(=O)C(C)=CC32)C2C(C)(C)C12OC(C)=O` (stereo not drawn) [PMA, 4-beta-phorbol-12-myristate-13-acetate], in data set [3], the “Effect on number and affinity of binding sites for TNF” value was “affect only the number of binding sites for TNF and not their affinity”.
